One data set deals with CYP2C9 (Homo sapiens, UniProt P11712). Nature of the data set: Fluorometric CYP2C9 activity assay in human hepatic microsomes. Conditions: human liver microsomes, protease inhibitors at 50 µM, 15 min 37 °C.
In data set [1] the test system is H9N2 IAV strain A/quail/Shantou/782/00. It is filed as cell-based, influenza A virus. The note with it: MDCK-II cells, MOI 0.01, 50 µM, 24 h.
The target in another data set is CYP2C19 (Homo sapiens, UniProt P33261). Nature of the data set: Fluorometric CYP2C19 activity assay in human hepatic microsomes. Conditions: human liver microsomes, protease inhibitors at 50 µM, 15 min 37 °C.
Chain of CYP2C19 (P33261 whole entry): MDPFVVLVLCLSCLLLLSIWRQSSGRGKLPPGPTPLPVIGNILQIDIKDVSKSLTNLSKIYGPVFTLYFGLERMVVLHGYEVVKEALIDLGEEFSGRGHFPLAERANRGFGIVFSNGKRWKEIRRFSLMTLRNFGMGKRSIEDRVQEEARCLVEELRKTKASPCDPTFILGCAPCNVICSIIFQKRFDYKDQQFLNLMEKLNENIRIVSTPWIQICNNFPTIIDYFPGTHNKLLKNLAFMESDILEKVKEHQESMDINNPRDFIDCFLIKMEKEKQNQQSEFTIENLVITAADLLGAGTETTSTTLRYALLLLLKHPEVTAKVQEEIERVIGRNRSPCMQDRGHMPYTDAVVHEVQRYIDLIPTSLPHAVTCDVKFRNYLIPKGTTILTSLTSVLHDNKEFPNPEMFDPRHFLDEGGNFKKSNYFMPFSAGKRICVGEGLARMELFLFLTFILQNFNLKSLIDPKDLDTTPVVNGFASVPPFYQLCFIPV
A short description of data set [2]: Depletion of inhibitors in human primary hepatocyte suspension (LC-MS/MS). Conditions: human, cryopreserved primary human hepatocytes in suspension.
The test system of data set [3] is human primary hepatocytes. Described as above. The note with it: primary human hepatocytes, 10 µM.
The nature of data set [4]: Prediction of in vivo human PK parameters from hepatocyte clearance. It is filed as in vitro ADME.
The next data set deals with CYP2D6 (Homo sapiens, UniProt P10635). Nature of the data set: Fluorometric CYP2D6 activity assay in human hepatic microsomes. Conditions: human liver microsomes, protease inhibitors at 50 µM, 15 min 37 °C.
Chain of CYP2D6 (P10635 whole entry): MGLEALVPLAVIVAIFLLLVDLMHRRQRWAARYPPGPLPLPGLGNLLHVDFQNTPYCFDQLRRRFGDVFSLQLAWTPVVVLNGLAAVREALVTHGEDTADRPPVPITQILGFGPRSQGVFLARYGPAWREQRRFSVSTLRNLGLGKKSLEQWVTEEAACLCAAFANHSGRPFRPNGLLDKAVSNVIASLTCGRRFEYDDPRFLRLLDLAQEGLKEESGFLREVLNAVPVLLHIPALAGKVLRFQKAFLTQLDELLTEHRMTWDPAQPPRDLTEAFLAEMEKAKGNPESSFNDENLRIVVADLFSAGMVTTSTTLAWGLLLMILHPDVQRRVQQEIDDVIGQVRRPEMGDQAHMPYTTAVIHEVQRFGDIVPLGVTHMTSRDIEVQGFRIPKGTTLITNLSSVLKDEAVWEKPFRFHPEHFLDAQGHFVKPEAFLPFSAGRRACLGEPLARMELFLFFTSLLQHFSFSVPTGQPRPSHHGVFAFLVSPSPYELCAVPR
The subject of data set [5] is cynomolgus monkey hepatocytes. More on the design: method as in PMID 31391268. The note with it: cited from earlier work.
A further data set has as its system α-1 acidic glycoprotein. More on the design: method as in PMID 37865989. The note with it: cited from earlier work.
The next data set concerns the target T1, CYP1A2 (Homo sapiens, UniProt P05177).
T1 sequence (P05177 1-516): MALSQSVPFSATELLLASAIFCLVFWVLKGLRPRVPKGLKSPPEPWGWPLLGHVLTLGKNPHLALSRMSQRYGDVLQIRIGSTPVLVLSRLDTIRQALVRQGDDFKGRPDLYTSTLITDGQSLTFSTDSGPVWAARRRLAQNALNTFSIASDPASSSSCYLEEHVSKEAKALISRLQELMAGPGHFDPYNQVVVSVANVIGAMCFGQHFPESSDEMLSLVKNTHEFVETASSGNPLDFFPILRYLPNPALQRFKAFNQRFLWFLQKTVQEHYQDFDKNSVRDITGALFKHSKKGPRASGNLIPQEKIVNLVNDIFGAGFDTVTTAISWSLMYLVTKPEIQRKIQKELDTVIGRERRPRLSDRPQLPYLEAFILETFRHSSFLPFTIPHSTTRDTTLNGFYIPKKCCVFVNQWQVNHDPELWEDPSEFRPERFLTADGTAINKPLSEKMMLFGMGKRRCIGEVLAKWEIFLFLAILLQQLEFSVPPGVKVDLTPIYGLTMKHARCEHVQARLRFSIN
Description: Fluorometric CYP1A2 activity assay in human hepatic microsomes. Conditions: human liver microsomes, protease inhibitors at 50 µM, 15 min 37 °C. Background: Liver microsomes are vesicles of endoplasmic reticulum, rich in cytochrome P450 enzymes.

Another data set has as its target CYP3A4 (Homo sapiens, UniProt P08684). Nature of the data set: Fluorometric CYP3A4 activity assay in human hepatic microsomes. Conditions: human liver microsomes, 10, 25 and 50 µM.

Molecules are shown by their SMILES.

Chain of CYP2C9 (P11712 whole entry): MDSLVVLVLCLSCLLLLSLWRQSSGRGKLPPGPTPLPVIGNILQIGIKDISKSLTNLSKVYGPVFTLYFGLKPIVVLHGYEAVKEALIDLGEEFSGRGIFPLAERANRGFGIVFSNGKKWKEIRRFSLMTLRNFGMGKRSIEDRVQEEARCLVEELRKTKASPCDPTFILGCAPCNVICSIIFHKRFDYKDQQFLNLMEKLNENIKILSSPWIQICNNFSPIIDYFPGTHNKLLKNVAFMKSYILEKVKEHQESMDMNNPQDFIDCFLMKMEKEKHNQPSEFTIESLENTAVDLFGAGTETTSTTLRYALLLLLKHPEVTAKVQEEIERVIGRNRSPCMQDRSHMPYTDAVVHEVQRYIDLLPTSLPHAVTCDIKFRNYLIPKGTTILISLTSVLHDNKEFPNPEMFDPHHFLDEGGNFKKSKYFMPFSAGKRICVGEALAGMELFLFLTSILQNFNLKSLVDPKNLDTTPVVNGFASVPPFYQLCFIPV
Chain of CYP3A4 (P08684 whole entry): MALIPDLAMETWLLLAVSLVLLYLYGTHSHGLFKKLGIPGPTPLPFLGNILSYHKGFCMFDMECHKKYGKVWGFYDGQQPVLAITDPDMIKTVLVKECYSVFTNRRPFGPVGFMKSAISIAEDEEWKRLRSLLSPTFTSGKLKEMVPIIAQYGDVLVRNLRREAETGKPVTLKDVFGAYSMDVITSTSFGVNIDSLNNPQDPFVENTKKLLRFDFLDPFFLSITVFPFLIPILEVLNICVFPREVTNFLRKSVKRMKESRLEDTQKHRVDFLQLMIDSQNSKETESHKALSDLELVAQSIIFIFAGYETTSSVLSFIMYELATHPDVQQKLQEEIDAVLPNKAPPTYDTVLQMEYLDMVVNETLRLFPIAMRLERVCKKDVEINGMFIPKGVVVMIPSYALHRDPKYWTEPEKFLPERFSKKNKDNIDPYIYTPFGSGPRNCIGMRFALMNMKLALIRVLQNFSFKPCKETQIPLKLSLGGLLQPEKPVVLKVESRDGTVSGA

What is called half-life is the time in which the quantity being followed falls by half. A word on the CLint scaled: it is the capacity of the preparation to metabolise the compound, expressed as a volume cleared per time. Consider `COc1ccc(-c2cccc(S(=O)(=O)N[C@@H](Cc3cccc(C(=N)N)c3)C(=O)N3CCC(N)CC3)c2)c(OC)c1` [MI-472], for which the “Inhibition of CYP2C9 activity” value on CYP2C9 is listed as “No significant CYP inhibitory potential”. For the same compound, the “H9N2 viral spread / formation of viral foci” value in [1] is on record as “only slightly reduced formation of viral foci”. Also, the “Inhibition of CYP2C19 activity” value at CYP2C19 was “No significant CYP inhibitory potential”. Besides, in data set [2], the half-life at 10 µM is 3.84 h. The CLint scaled at 10 µM in data set [2] (CLint, intrinsic clearance from primary human hepatocytes scaled to whole liver/body weight) stood at 19.8 mL/min/kg. Besides, the “Parent compound retained at the 120-min sampling point” value in data set [3] (120 min, % of 0-min concentration, mean ± S.E.M.) came out at 65.1 ± 5.5%. Moreover, the “Sampling interval at which significant depletion was first observed” value in data set [3] (sampling 0-120 min) is on record as 30 min. For the same compound, in data set [4] (predicted), the “Classification (extraction type)” value was “Intermediate” and the “Extraction ratio EH” value is 0.36. In data set [4] (predicted from hepatocyte Clint, fu = 1), the “Predicted Cl, CLH” value is recorded as 7.40. Further, the “Inhibition of CYP2D6 activity” value at CYP2D6 was “No significant CYP inhibitory potential”. Further, in [5], the “Treatment time after which significant conversion was seen” value was 60 to 120 min. Besides, the “Interaction with α-1 acidic glycoprotein” value in the data set on α-1 acidic glycoprotein was “complex formation”. The “Inhibition of CYP1A2 activity” value at CYP1A2 is recorded as “No significant CYP inhibitory potential”. The “Effect on CYP3A4 enzyme activity” value on CYP3A4 was “significant inhibitory effect”.
